Assay results reported in patent US12622899B2 (PureTech LYT 100, Inc., priority 2018, dated 2026).

Assay: Study LYT-100-2021-103 Part 3 (Example 2): PK of LYT-100 550 mg TID then 824 mg TID
Assay type: in vivo, human
Method: Subjects provided blood samples prior to treatment, i.e., Day −1 or Day 1, for the determination of CYP1A2, CYP2C9, CYP2C19, and CYP2D6 genotype to support exploratory PK analyses. Subjects were required to provide consent for genotyping. Blood samples for PK were collected at specified times, as follows: • Day 1:0 (pre-AM dose) • Day 2: no sampling • Day 3:0 (pre-AM dose), and 1, 2, 3, 4, 6 (pre-mid-day dose), 7, 8, 9, 10, 12 (pre-PM dose), 13, 14, 15, 16, and 17 hours post-AM dose • Day 4:0 (pre-AM dose) • Day 5: no sampling • Day 6:0 (pre-AM dose), and 1, 2, 3, 4, 6 (pre-mid-day dose), 7, 8, 9, 10, 12 (pre-PM dose), 13, 14, 15, 16, and 17 hours post-AM dose • Day 7:0 (same time as Day 6 pre-AM dose, discharge)
Data was obtained for thirty subjects. Eight subjects had all values reported as below level of quantitation (BLQ; assumed to be 6 placebo subjects plus 2 active subjects with Day 1 pre-dose samples only). One additional subject was excluded due to a large number of BLQ samples on both Days 3-4 and 6-7. Accordingly, twenty-one subjects had sufficient PK data available to calculate PK parameters at the lower dose (550 mg TID on Days 3-4). Three subjects only had data for Days 3-4, and therefore had missing PK parameters for the higher dose (824 mg TID on Days 6-7).

Compound: [2H]C([2H])([2H])c1ccc(=O)n(-c2ccccc2)c1 [LYT-100, 5-(methyl-d3)-1-phenylpyridin-2-(1H)-one]
- Cmax, PK Parent (Healthy Older Part 3, LYT-100 824 mg TID, fed, N=13, mean (SD)): 13.7 (5.1) mcg/mL
- AUC, % higher compared to historic pirfenidone PK values (LYT-100 824 mg TID): approximately 25%
- exposure equivalent, % of 801 TID pirfenidone (LYT-100 825 mg TID): 120-150%
- Cmax, % higher than with pirfenidone (Part 3, LYT-100 824 mg TID): 17%
